The source of these data is the PolyMetriX glass transition set.

Assay in series [1]: not given
This is another data set of the same source.

Assay in series [2]: not given
The source holds these as a separate data set.

Structures are written as SMILES. ± gives the standard deviation of the reports.

On to `*CC(*)OCCC` (repeat unit) [Poly(propyl vinyl ether)], for which the glass transition temperature was -49 °C.

`*Oc1ccc(Oc2ccc(Oc3ccc4c(c3)C(=O)N(CCCCCCN3C(=O)c5ccc(*)cc5C3=O)C4=O)cc2)cc1` (repeat unit) [Polyetherimide 1 ] had a glass transition temperature in series [1] of 126.4 ± 2.1 °C.

For `*CC(*)OC(=O)C=Cc1ccccc1` (repeat unit) [poly(vinyl cinnamate)], the glass transition temperature in series [2] stood at 77 °C.
